# Measurements as given in EP0247971A2, “Novel pharmaceutical compositions comprising and use of cis-6-(4-acetanilido)-8,9-dimethoxy-2-methyl-1,2,3,4,4a,10b-hexahydrobenzo[c][1,6]naphthyridin” (SANDOZ AG, priority 1986, dated 1987).
# Tests used:
# Format in all cases: in vivo
# [1] = tested on: patients exhibiting bronchial asthma; experiment: Clinical trial A: bronchodilator efficacy compared with placebo and/or Theophylline and with Salbutamol
# From the text: Criteria for inclusion are based on medical history and on initial examination. Subjects selected are of either sex, aged between 18 and 60 years, and identified as having a history of bronchial asthma and positive response to inhalation of β2-agonist therapy (e.g. Fenoterol or Salbutamol) or other bronchodilator therapy, e.g. with FEV-1 and/or PEFR increasing by 20% as documented 1 week before commencement of the trial. Baseline of FEV-1 and/or PEFR in each subject entered for the trial should be at least 20% below the predicted value, preferably also at the time of trial. The following exclusion criteria are applied: • - Severe chronic obstructive pulmonary disease, emphysema, active and progressive infection, status asthmaticus during the last 12 months. • - Any serious or chronic illness of the gastrointestinal system, liver or kidneys which may influence absorption, metabolism and excretion of the drugs. • - Diabetes mellitus. • - Any condition which might impair the ability of the physician to evaluate the progress of the patient.
# Medication employed for the trial comprises: • A. (±)-COMPOUND (in the form of its bis-hydrogen maleate salt), in dry substance form. For administration the active ingre- ded is dissolved in pharmaceutical grade water, 30 - 60 mins. before ingestion: at a concentration of 1 g/100 ml, for administration at a dosage of 300 mg (30 ml), 200 mg (20 ml) or 100 mg (10 ml); at a concentration of 0.5 g/ 100 ml, for administration at a dosage of 50 mg (10 ml); or at a concentration of 0.25 g/100 ml for administration at a dosage of 25 mg (10 ml). • B. Theophylline solution at a dosage of 150 mg. • C. Placebo - aqueous solution only, no active ingredient. • D. Salbutamol, administered by inhalation in 3 puffs comprising 0.1 mg active ingredient/puff.
# The trial is performed for each subject on 2, 3 or more separate days, each trial day being separated by a wash-out period of 3 to 7 days. […]
# [2] = tested on: subjects exhibiting allergic, atopic bronchoconstrictor response; experiment: Clinical trial B: prophylactic efficacy compared with placebo (allergen challenge); conditions: vs placebo
# Method: Suitable individual dosages, e.g. for (i)-COMPOUND as the bis-hydrogen maleate, in such clinical trials comprise e.g. ca. 1 to 25 mg administered by inhalation (for single administration or administration 2 to 3 daily) or ca. 25 to 100 mg orally (for single administration or administration 2 to 3x daily) up to ca. 200 or 300 mg orally (for single administration).
# Both acute (0 to 1 hour) and long-term (up to 12 hour) change in lung function is determined post-medication by measurement of parameters (FVC, FEV 1 etc...) as set forth for clinical trial A above.
# In addition to monitoring of lung function, blood eosinophil levels are also monitored and the incidence of activated eosinophils and eosinophil secretory proteins is determined. In individual studies, subjects are also subjected to lung lavage and the presence of eosinophils and platelets and their respective secretory products determined before and after exposure to allergen.
# [3] = tested on: Guinea pigs; experiment: Suppression of airways hyperreactivity, sensitised animals (immune complexes); conditions: immune-complex treated animals, labelled platelets
# From the text: Guinea pigs are anaesthetised and airways resistance and compliance recorded as described under example lb^l above. […] Platelets are isolated and labelled with ^lllindium prior to intravenous infusion. Platelet accumulation is monitored by external crystal detectors [c.f. Morley et al. […] Allergic reaction is initiated by i.v. injection of preformed immune complexes (bovine y-globulin/ anti-bovine y-globulin), using a dose that is scarcely sufficient to induce bronchospasm at the first injection. By repeating the dose at regular (10 min.) intervals, bronchospasm of progressively increasing amplitude is evidenced. This effect is paralleled by an incremental retention of platelets within the airway vasculature. Following the last dose of immune complexes, the dose-effect relationship to histamine is re-defined. In animals so treated, induction of airways hyperreactivity is consistently observed.
# [4] = tested on: asthmatic subjects; experiment: Clinical trial C: prophylactic/bronchodilator efficacy in asthma; conditions: additional bronchodilator dosaging on attack
# Method: Initial dosaging is of the order of from 1 to 100 mg, e.g. from 5 to 50 mg per day, administered once or in divided dosages 2 or 3x daily, for administration by inhalation and of the order of from 25 to 300 mg per day administered once or in divided dosages 2 or 3x daily, for oral administration, with subsequent reduction in appropriate cases to a maintainance dosage of 1 to 50 mg, e.g. from 5 to 25 mg, per day for inhalation or from 25 to 100 or 200 mg per day orally. Administration is suitably effected in divided dosages 2 or 3x daily. During the course of the trial subjects are monitored continually and all relevant parameters recorded including lung function, alterations in the incidence of activated eosinophils or the release of eosinophil products into the blood or bronchial fluids and/or changes in the function of platelets ex vivo and, in particular,-frequency and severity of asthma exacerbation or attack. Additional bronchodilator dosaging may be provided on the occasion of any such attack.
Structure (SMILES),tolerance (reported side-effects and side-reactions) ([1]; all instances),"results compared with therapy B (Theophylline 150 mg) or D (Salbutamol inhalation) ([1]; higher dosage rates, e.g. of 50 mg or 100 mg and more)","lung-function ([1]; oral 25 to 300 mg, compared with placebo)",bronchorestrictor response to allergen ([2]; ca. 1 to 25 mg by inhalation or ca. 25 to 300 mg orally prior to allergen challenge),eosinophilic response ([2]; dosages as indicated prior to allergen challenge),platelet accumulation [3],results employing COMPOUND at exacerbation or attack [4]
"COc1cc2c(cc1OC)[C@@H]1CN(C)CC[C@@H]1N=C2c1ccc(NC(C)=O)cc1 (racemic) [cis-6-(4-acetanilido)-8,9-dimethoxy-2-methyl-1,2,3,4,4a,10b-hexahydrobenzo[c][1,6]naphthyridin]",well tolerated,approach or are at least comparable,marked improvement,advance protection,reduction,,
"COc1cc2c(cc1OC)[C@@H]1CN(C)CC[C@@H]1N=C2c1ccc(NC(C)=O)cc1 [COMPOUND, cis-6-(4-acetanilido)-8,9-dimethoxy-2-methyl-1,2,3,4,4a,10b-hexahydrobenzo[c][1,6]naphthyridin]",,,,,,No inhibition,symptomatic efficacy
